One data set has as its system skin graft donor sites. Description: Human patients, skin-graft donor site treated with TXA embedded dressings without a drain. Format: in vivo. Here is the method:
Human patients were treated with TXA embedded dressings. A 50 cm^2 partial thickness wound was generated with a dermatome, thereby creating the skin-graft donor site. […] Non-adherent sterile dressings (TIELLE™) were contacted with the solution and placed directly on the donor site dressing.
The wounds were covered with a semipermeable film ([…]™) without a drain. Normally a dermal drain is placed through the film into contact with the wound with the intention of collecting fluid. A total of 300 ml in 5 days is normally collected (60 ml per day=[…]).

For another data set, the system named is chronic ulcers. Nature of the data set: Chronic ulcers treated with similar TXA dressings. Format: in vivo, Human.
Data set [1] concerns keratinocyte and fibroblast cell cultures. The settings on record: short exposure to even high concentrations of topical TXA; cited from earlier work.
In another data set the test system is scald injuries. Nature of the data set: Scald injuries treated with similar TXA dressings. Format: in vivo, Human. As for the experimental part:
In particular, a child with a scald was treated with TIELLE™ containing TXA and the dressing was removed after ten days.

Data set [2] relates to rhytidoplasty (face lift). The settings on record: local TXA irrigation; first twenty-four hours after rhytidoplasty; cited from earlier work.

“Also recorded” adds a separate entry of the source.

`NC[C@H]1CC[C@H](C(=O)O)CC1` [TXA, tranexamic acid]: the amount of exudate result in the data set on skin graft donor sites (50 cm^2 partial thickness skin-graft donor site, one to two grams TXA in 10 ml normal saline on TIELLE dressing, TEGADERM film, no drain) is given as “reducing significantly the amount of exudate; also recorded: greatly reduce exudate”. Moreover, the bleeding result in the data set on skin graft donor sites (skin graft donor sites, topical TXA) is on record as “little bleeding”; in data set [2], “decrease bleeding”. In the data set with skin graft donor sites (skin-graft donor site, topical TXA dressing), the “adverse effect of TXA” value was “no adverse effect”. Moreover, the “re-epithelialization of the wound” value in the data set with skin graft donor sites (skin-graft donor site, at removal of original dressing (12-14 days, 8-16 days)) is “re-epithelialized skin surface without the need for placement of a further dressing; also recorded: In most cases the wound was fully epithelialized; also recorded: rapid and complete or near complete re-epithelialization”. Moreover, the reepithelization result in the data set with chronic ulcers and in the data set on scald injuries was “near complete reepithelization” in each case. In addition, the tolerance in vitro result in data set [1] is on record as “well tolerated”. In addition, in data set [2], the drainage result is recorded as “reduce drainage”.

The record behind these values is patent US20250195714A1, “DEVICES AND METHODS OF TREATING WOUNDS” (University of Massachusetts, priority 2022, published 2025).
